This note sets out measurements from patent publication US20070042997A1, “Medicament for treatment of dermal pigmentation” (priority 2003, published 2007).

The test system of this assay is melanocytes. Briefly: Proliferation inhibitory test against melanocyte caused by ultraviolet irradiation. The format is cell-based. The note with it: cultured melanocytes, compound at 1 μg/ml. The protocol: Proliferation Inhibitory Test Against Melanocyte Caused by Ultraviolet Irradiation
Melanocytes were cultured according to the authentic method, and the proliferation of melanocytes in the presence or absence of test drugs under the ultraviolet irradiation was measured.

Take `O=C(Nc1cc(C(F)(F)F)cc(C(F)(F)F)c1)c1cc(Cl)ccc1O` [Compound 50, N-[3,5-bis(trifluoromethyl)phenyl]-5-chloro-2-hydroxybenzamide]: the “inhibition of transformation and proliferation of melanocyte under ultraviolet irradiation” value is given as “almost completely inhibited”.
